Experimental data from patent US20140308733A1, “METHOD FOR INDUCING GERMINATION OF SPORE FORMING BACTERIUM” (CALPIS CO., LTD., priority 2011, published 2014).

Columns and labels:
Type in all cases: cell-based
[1] = tested on: Bacillus licheniformis (NBRC 14206); assay: Germination induction, change of turbidity (630 nm) of spore suspension; conditions: 300 ppm, 37° C., 150 rpm
Method: (§1) It is possible to determine whether spores have germinated, after measuring an OD 630 value (turbidity at 630 nm) of the liquid culture, based on decrease in the value (Literature: Microbiology, (1950), 4, 3, 330-338). Briefly, bacterial cells after culturing are washed with distilled water and diluted with distilled water to OD 630=1.0, which is then mixed with an equal volume of a germination induction solution, and the turbidity at 630 nm is measured by a UV spectrophotometer at room temperature.
(§2) TS culture media (Difco, Trypticase Soy Broth) were inoculated respectively with 11 strains listed in Table 1 and cultured at 50° C. with respect to Geobacillus stearothermophilus NBRC13737 and Aeribacillus pallidus TK6004 (FERM BP-08597), and at 37° C. with respect to the other 9 strains, until respective colonies were established. Then with respect to each of 11 strains, a loop full of a single colony was scratched by a platinum loop and suspended in 500 μL of sterilized water. In 1000 g of water was dissolved 8.0 g of a nutrient agar culture medium (Difco, Nutrient Broth), followed by high pressure steam sterilization (121° C., 15 min) to prepare a plate medium. The nutrient agar culture medium was smeared with each 100 μL of the suspension and cultured at 37° C. for 3 days.
(§3) Then, bacterial cells were suspended using a platinum loop in 500 μL of sterilized water, and the bacterial suspension was subjected to a heat shock at 65° C. for 35 min. Each 100 μL of the heat-shocked bacterial suspension and a not-heat-shocked bacterial suspension were smeared on the TS culture media respectively and cultured at 50° C. or 37° C. for 1 day.
(§4) After confirming the spore formation, the bacterial cells were collected by a bacteria spreader, suspended in 10 mL of sterilized distilled water, and then centrifuged (8340×g, 4° C., 15 min). The supernatant was removed and thereafter the bacterial cells were washed twice with 10 mL of sterilized water. After washing, the bacterial cells were suspended in 5 mL of sterilized water, and the suspension was filtrated by sterilized Kimwipes. The filtrate was centrifuged (8340×g, 4° C., 15 min) to remove the supernatant, and the rest was adjusted to the turbidity (at 630 nm) of 1.0 with sterilized water.
(§5) After dissolving with stirring using a stirring rod with a propeller, filtration sterilization (0.45 μm filter) was conducted to prepare each 600 ppm-solution.
(§6) Five hundred (500) μL of each solution and 500 μL of each bacterial spore suspension were mixed. […] Defining the time point of mixing as the reaction initiation (0 min), and continuing shaking (150 rpm) at 37° C., the turbidity (630 nm) was measured at 10, 20, 30, 40, 50, 60, 90, 120, and 180 min after the reaction initiation.
(§7) Since the turbidity at 630 nm decreases by germination of spores, it has been known that the turbidity at 630 nm can be used to determine the germination rate.

[2] = tested on: Bacillus coagulans (NBRC 3887); assay: as above; conditions: 300 ppm, 37° C., 150 rpm
Method: as §1, §2
as §3, with “day. As the results of the cultures, colony formation was confirmed also with respect to the heat-shocked bacterial suspensions, to confirm that spores were formed for all of 11 strains. Further, since the bacteria were not stained by Gram staining, it was reconfirmed that spores were formed.” for “day.”
as §4, §5, §6, §7

[3] = tested on: Aeribacillus pallidus TK6004 (FERM BP-08597); assay: as above; conditions: 300 ppm, 37° C., 150 rpm
Method: as §1, §2
as §3, with “day. As the results of the cultures, colony formation was confirmed also with respect to the heat-shocked bacterial suspensions, to confirm that spores were formed for all of 11 strains. Further, since the bacteria were not stained by Gram staining, it was reconfirmed that spores were formed.” for “day.”
as §4, §5, §6, §7

[4] = tested on: Bacillus amyloliquefaciens (NBRC 3032); assay: as above; conditions: 300 ppm, 37° C., 150 rpm
Method: as §1, §2
as §3, with “day. As the results of the cultures, colony formation was confirmed also with respect to the heat-shocked bacterial suspensions, to confirm that spores were formed for all of 11 strains. Further, since the bacteria were not stained by Gram staining, it was reconfirmed that spores were formed.” for “day.”
as §4, §5, §6, §7

[5] = tested on: Bacillus subtilis C-3102 (FERM BP-1096); assay: as above; conditions: 300 ppm, 37° C., 150 rpm
Method: as §1, §2
as §3, with “day. As the results of the cultures, colony formation was confirmed also with respect to the heat-shocked bacterial suspensions, to confirm that spores were formed for all of 11 strains. Further, since the bacteria were not stained by Gram staining, it was reconfirmed that spores were formed.” for “day.”
as §4, §5, §6, §7

[6] = tested on: Bacillus coagulans (NBRC 12583); assay: as above; conditions: 300 ppm, 37° C., 150 rpm
Method: as §1, §2
as §3, with “day. As the results of the cultures, colony formation was confirmed also with respect to the heat-shocked bacterial suspensions, to confirm that spores were formed for all of 11 strains. Further, since the bacteria were not stained by Gram staining, it was reconfirmed that spores were formed.” for “day.”
as §4, §5, §6, §7

[7] = tested on: Bacillus amyloliquefaciens (NBRC 3022); assay: as above; conditions: 300 ppm, 37° C., 150 rpm
Method: as §1, §2
as §3, with “day. As the results of the cultures, colony formation was confirmed also with respect to the heat-shocked bacterial suspensions, to confirm that spores were formed for all of 11 strains. Further, since the bacteria were not stained by Gram staining, it was reconfirmed that spores were formed.” for “day.”
as §4, §5, §6, §7

[8] = tested on: Bacillus subtilis sp spizizenii (NBRC 101239); assay: as above; conditions: 300 ppm, 37° C., 150 rpm
Method: as §1, §2
as §3, with “day. As the results of the cultures, colony formation was confirmed also with respect to the heat-shocked bacterial suspensions, to confirm that spores were formed for all of 11 strains. Further, since the bacteria were not stained by Gram staining, it was reconfirmed that spores were formed.” for “day.”
as §4, §5, §6, §7

[9] = tested on: Bacillus licheniformis (NBRC 12195); assay: as above; conditions: 300 ppm, 37° C., 150 rpm
Method: as §1, §2
as §3, with “day. As the results of the cultures, colony formation was confirmed also with respect to the heat-shocked bacterial suspensions, to confirm that spores were formed for all of 11 strains. Further, since the bacteria were not stained by Gram staining, it was reconfirmed that spores were formed.” for “day.”
as §4, §5, §6, §7

[10] = tested on: Geobacillus stearothermophilus (NBRC 13737); assay: as above; conditions: 300 ppm, 37° C., 150 rpm
Method: as §1, §2
as §3, with “day. As the results of the cultures, colony formation was confirmed also with respect to the heat-shocked bacterial suspensions, to confirm that spores were formed for all of 11 strains. Further, since the bacteria were not stained by Gram staining, it was reconfirmed that spores were formed.” for “day.”
as §4, §5, §6, §7

[11] = tested on: Bacillus subtilis C-3102 (FERM BP-1096); assay: Germination induction by ferulic acid, vanillic acid or p-coumaric acid at 300 ppm, turbidity change (Example 3); conditions: for turbidity (630 nm): 37° C., 150 rpm
Method: In each 500 mL of distilled water heated to 70° C. was added 0.3 g of ferulic acid, vanillic acid, or p-coumaric acid. After dissolving with stirring using a stirring rod with a propeller, filtration sterilization (0.45 μm filter) was conducted to prepare each 600 ppm-solution.
Next, 500 μL aliquots of bacterial suspension of Bacillus subtilis C-3102 (FERM BP-1096) prepared by a similar method as in Example 1 were mixed with 500 μL of each of the ferulic acid, vanillic acid, and p-coumaric acid solutions, and the mixtures were adjusted to 300 ppm of ferulic acid, vanillic acid, or p-coumaric acid concentration. Defining the time point of mixing as the reaction initiation (0 min), and continuing shaking (150 rpm) at 37° C., the turbidity (630 nm) was measured at 10, 20, 30, 40, 50, 60, 90, 120, and 180 min after the reaction initiation.

[12] = 20 min after reaction initiation
[13] = 30 min after reaction initiation
[14] = 40 min after reaction initiation
[15] = 50 min after reaction initiation
[16] = 60 min after reaction initiation
[17] = 90 min after reaction initiation
[18] = 120 min after reaction initiation
[19] = 180 min after reaction initiation
[20] = 0 min after reaction initiation
[21] = 10 min after reaction initiation

C[C@H](N)C(=O)O [L-Ala, L-alanine, reference compound]
turbidity (630 nm) [1, 12]: 0.535
turbidity (630 nm) [1, 13]: 0.502
turbidity (630 nm) [1, 14]: 0.490
turbidity (630 nm) [1, 15]: 0.482
turbidity (630 nm) [1, 16]: 0.477
turbidity (630 nm) [1, 17]: 0.470
turbidity (630 nm) [1, 18]: 0.465
turbidity (630 nm) [1, 19]: 0.468
turbidity (630 nm) [2, 20]: 0.510
turbidity (630 nm) [2, 21]: 0.508
turbidity (630 nm) [2, 12]: 0.470
turbidity (630 nm) [2, 13]: 0.515
turbidity (630 nm) [2, 14]: 0.488
turbidity (630 nm) [2, 15]: 0.500
turbidity (630 nm) [2, 16]: 0.500
turbidity (630 nm) [2, 17]: 0.472
turbidity (630 nm) [2, 18]: 0.500
turbidity (630 nm) [2, 19]: 0.490
turbidity (630 nm) [3, 20]: 0.488
turbidity (630 nm) [3, 21]: 0.470
turbidity (630 nm) [3, 12]: 0.463
turbidity (630 nm) [3, 13]: 0.457
turbidity (630 nm) [3, 14]: 0.451
turbidity (630 nm) [3, 15]: 0.445
turbidity (630 nm) [3, 16]: 0.441
turbidity (630 nm) [3, 17]: 0.416
turbidity (630 nm) [3, 18]: 0.404
turbidity (630 nm) [3, 19]: 0.370
turbidity (630 nm) [4, 20]: 0.517
turbidity (630 nm) [4, 21]: 0.418
turbidity (630 nm) [4, 12]: 0.362
turbidity (630 nm) [4, 13]: 0.347
turbidity (630 nm) [4, 14]: 0.333
turbidity (630 nm) [4, 15]: 0.315
turbidity (630 nm) [4, 16]: 0.32
turbidity (630 nm) [4, 17]: 0.298
turbidity (630 nm) [4, 18]: 0.290
turbidity (630 nm) [4, 19]: 0.274
turbidity (630 nm) [5, 20]: 0.606
turbidity (630 nm) [5, 21]: 0.607
turbidity (630 nm) [5, 12]: 0.597
turbidity (630 nm) [5, 13]: 0.597
turbidity (630 nm) [5, 14]: 0.594
turbidity (630 nm) [5, 15]: 0.590
turbidity (630 nm) [5, 16]: 0.582
turbidity (630 nm) [5, 17]: 0.584
turbidity (630 nm) [5, 18]: 0.574
turbidity (630 nm) [5, 19]: 0.578
turbidity (630 nm) [6, 20]: 0.564
turbidity (630 nm) [6, 21]: 0.559
turbidity (630 nm) [6, 12]: 0.545
turbidity (630 nm) [6, 13]: 0.515
turbidity (630 nm) [6, 14]: 0.502
turbidity (630 nm) [6, 15]: 0.498
turbidity (630 nm) [6, 16]: 0.510
turbidity (630 nm) [6, 17]: 0.510
turbidity (630 nm) [6, 18]: 0.507
turbidity (630 nm) [6, 19]: 0.491
turbidity (630 nm) [7, 20]: 0.565
turbidity (630 nm) [7, 21]: 0.505
turbidity (630 nm) [7, 12]: 0.506
turbidity (630 nm) [7, 13]: 0.461
turbidity (630 nm) [7, 14]: 0.495
turbidity (630 nm) [7, 15]: 0.504
turbidity (630 nm) [7, 16]: 0.506
turbidity (630 nm) [7, 17]: 0.490
turbidity (630 nm) [7, 18]: 0.505
turbidity (630 nm) [7, 19]: 0.493
turbidity (630 nm) [8, 20]: 0.527
turbidity (630 nm) [8, 21]: 0.520
turbidity (630 nm) [8, 12]: 0.514
turbidity (630 nm) [8, 13]: 0.501
turbidity (630 nm) [8, 14]: 0.488
turbidity (630 nm) [8, 15]: 0.475
turbidity (630 nm) [8, 16]: 0.455
turbidity (630 nm) [8, 17]: 0.409
turbidity (630 nm) [8, 18]: 0.387
turbidity (630 nm) [8, 19]: 0.366
turbidity (630 nm) [9, 20]: 0.534
turbidity (630 nm) [9, 21]: 0.526
turbidity (630 nm) [9, 12]: 0.517
turbidity (630 nm) [9, 13]: 0.510
turbidity (630 nm) [9, 14]: 0.508
turbidity (630 nm) [9, 15]: 0.503
turbidity (630 nm) [9, 16]: 0.503
turbidity (630 nm) [9, 17]: 0.493
turbidity (630 nm) [9, 18]: 0.492
turbidity (630 nm) [9, 19]: 0.498
turbidity (630 nm) [10, 20]: 0.577
turbidity (630 nm) [10, 21]: 0.573
turbidity (630 nm) [10, 12]: 0.566
turbidity (630 nm) [10, 13]: 0.565
turbidity (630 nm) [10, 14]: 0.568
turbidity (630 nm) [10, 15]: 0.561
turbidity (630 nm) [10, 16]: 0.568
turbidity (630 nm) [10, 17]: 0.565
turbidity (630 nm) [10, 18]: 0.553
turbidity (630 nm) [10, 19]: 0.538

O=C(O)/C=C/c1ccc(O)cc1 [p-Coumaric acid, p-coumaric acid]
germination confirmed by turbidity decrease [11]: decreased, thereby to confirm germination
turbidity (630 nm) [11, 20]: 0.545
turbidity (630 nm) [11, 21]: 0.523
turbidity (630 nm) [11, 12]: 0.506
turbidity (630 nm) [11, 13]: 0.488
turbidity (630 nm) [11, 14]: 0.475
turbidity (630 nm) [11, 15]: 0.460
turbidity (630 nm) [11, 16]: 0.420
turbidity (630 nm) [11, 17]: 0.392
turbidity (630 nm) [11, 18]: 0.360
turbidity (630 nm) [11, 19]: 0.319
